Test results published in patent US6461834B1, “Clostripain catalyzed amidation of peptides” (Bionebraska, Inc., priority 1998, dated 2002).

How the values were obtained:
clostripain [1] = biological target: T1, clostripain (Hathewaya histolytica, UniProt P09870); assay: Effect of organic solvent on clostripain proteolytic activity (N-Bz-Phe-Val-Arg-p-nitroanilide substrate, photometric initial rates); format: biochemical; settings: varying amounts of organic solvent, otherwise as Table III
T1 construct: This protease is a heterodimer; purchased Worthington
Experimental: A substrate solution (1 mL) of 2 mg N-Bz-Phe-Val-Arg-p-nitroanilide in 2.5 mM dithiothreitol, 1 mM calcium chloride, 50 mM Tricine buffer at pH 8.5 was incubated at room temperature with 10 μg of clostripain, in an aqueous solution containing 10% (v/v) of organic solvent. Initial rates were determined by photometric detection of the liberated […].
These reactions were repeated in the presence of varying amounts of organic solvent, and optimal concentrations for proteolytic activity were determined for propylene carbonate (10%), N,N-dimethylformamide (20%), trifluoroethanol (20%), and acetonitrile (20%).

clostripain [2] = biological target: T1, clostripain; assay: Inhibition of clostripain amidation activity by organic solvent (GLP-1(7-36)Ala-Phe-Ala-Hse substrate, HPLC); format: biochemical; settings: 2 M ammonium acetate, pH 10.4, 45° C., maximal attained amidation level
Experimental: Maximal attained amidation level in the presence of various organic solvents was determined with GLP-1(7-36)Ala-Phe-Ala-Hse (SEQ ID NO:1; 2 mg/mL) in 2.5 mM DTT, 1 mM calcium chloride, 2 M ammonium acetate, pH 10.4, at 45° C., with 20 μg clostripain in a 1 mL reaction. Aliquots of the reaction mixture were removed at regular time intervals, quenched with acetic acid and assayed by HPLC analysis on a reverse phase HPLC column.

[3] = format: physicochemical
[4] = system: GLP-1(7-36)Ala-Phe-Ala-Hse; assay: Amidation by other Arg-specific proteases; format: biochemical; settings: 1 M ammonium hydroxide, pH 10 and 8.5 (cathepsin B also pH 5.5), enzyme:substrate 1:50 to 1:100
Experimental: GLP-1(7-36)Ala-Phe-Ala-Hse (SEQ ID NO:1) (between 0.5 and 2 mg/mL) was dissolved in 1 M ammonium hydroxide at pH 10 and 8.5 and incubated individually with six different proteolytic enzymes, five of which have a specificity to cleave peptides at the carboxyl peptide bond of arginine residues, similar to that of clostripain. These included trypsin, thrombin, cathepsin B (also tested at pH 5.5), coagulation factor Xa, plasmin and papain. Papain is a thiol protease, albeit one which is not specific to arginyl bonds. […] Enzyme:substrate ratios were between 1:50 to 1:100 and protease specific additives were added where appropriate (e.g., calcium chloride).

Molecule	optimal concentration for proteolytic activity (clostripain [1]) [%]	production of GLP-1(7-36)NH2 (reversed phase chromatography) [4]	further results
CC#N [Acetonitrile]	20	–	Extent of amidation (% of substrate converted) (clostripain [2]; 20% organic solvent): 18%
CN(C)C=O [Dimethylformamide, N,N-dimethylformamide]	20	–	–
CC1COC(=O)O1 (centres unmarked) [Propylene carbonate]	10	–	Extent of amidation (% of substrate converted) (clostripain [2]; 10% organic solvent): 29%
OCC(F)(F)F [Trifluoroethanol]	–	–	Extent of amidation (% of substrate converted) (clostripain [2]; 20% organic solvent): 9%
His-Ala-Glu-Gly-Thr-Phe-Thr-Ser-Asp- Val-Ser-Ser-Tyr-Leu-Glu-Gly-Gln-Ala-Ala-Lys-Glu-Phe-Ile-Ala-Trp-Leu- Val-Lys-Gly-Arg-NH2 [GLP-1(7-36)NH2]	–	–	formation of D-contaminants ([3]; in water, pH about 4 to 8.4, −20° C. to 45° C., similar period of time): essentially no formation of D-contaminants; degradation ([3]; pH 9.4): 9%; degradation into D-contaminants ([3]; pH 10.5): a substantial amount of the peptide was degraded into D-contaminants
thrombin	–	None of these proteases produced any GLP-1(7-36)NH2	–
trypsin	–	None of these proteases produced any GLP-1(7-36)NH2	–
plasmin: proteolytic enzyme cleaving at the carboxyl peptide bond of arginine residues (protein, UniProt P00747 20-580; P00747 581-810, looked up, Plasmin, proteolytic enzyme cleaving at the carboxyl peptide bond of arginine residues) Plasmin heavy chain A: EPLDDYVNTQGASLFSVTKKQLGAGSIEECAAKCEEDEEFTCRAFQYHSKEQQCVIMAENRKSSIIIRMRDVVLFEKKVYLSECKTGNGKNYRGTMSKTKNGITCQKWSSTSPHRPRFSPATHPSEGLEENYCRNPDNDPQGPWCYTTDPEKRYDYCDILECEEECMHCSGENYDGKISKTMSGLECQAWDSQSPHAHGYIPSKFPNKNLKKNYCRNPDRELRPWCFTTDPNKRWELCDIPRCTTPPPSSGPTYQCLKGTGENYRGNVAVTVSGHTCQHWSAQTPHTHNRTPENFPCKNLDENYCRNPDGKRAPWCHTTNSQVRWEYCKIPSCDSSPVSTEQLAPTAPPELTPVVQDCYHGDGQSYRGTSSTTTTGKKCQSWSSMTPHRHQKTPENYPNAGLTMNYCRNPDADKGPWCFTTDPSVRWEYCNLKKCSGTEASVVAPPPVVLLPDVETPSEEDCMFGNGKGYRGKRATTVTGTPCQDWAAQEPHRHSIFTPETNPRAGLEKNYCRNPDGDVGGPWCYTTNPRKLYDYCDVPQCAAPSFDCGKPQVEPKKCPGR Plasmin light chain B: VVGGCVAHPHSWPWQVSLRTRFGMHFCGGTLISPEWVLTAAHCLEKSPRPSSYKVILGAHQEVNLEPHVQEIEVSRLFLEPTRKDIALLKLSSPAVITDKVIPACLPSPNYVVADRTECFITGWGETQGTFGAGLLKEAQLPVIENKVCNRYEFLNGRVQSTELCAGHLAGGTDSCQGDSGGPLVCFEKDKYILQGVTSWGLGCARPNKPGVYVRVSRFVTWIEGVMRNN	–	None of these proteases produced any GLP-1(7-36)NH2	–
papain: thiol protease which is not specific to arginyl bonds (protein, UniProt P00784 134-345, looked up) Papain: IPEYVDWRQKGAVTPVKNQGSCGSCWAFSAVVTIEGIIKIRTGNLNEYSEQELLDCDRRSYGCNGGYPWSALQLVAQYGIHYRNTYPYEGVQRYCRSREKGPYAAKTDGVRQVQPYNEGALLYSIANQPVSVVLEAAGKDFQLYRGGIFVGPCGNKVDHAVAAVGYGPNYILIKNSWGTGWGENGYIRIKRGTGNSYGVCGLYTSSFYPVKN	–	None of these proteases produced any GLP-1(7-36)NH2	–
clostripain: extracellular thiol endoprotease from Clostridia, high specificity for Arg-Xaa peptide linkages (protein, UniProt P09870 51-181; P09870 191-526, looked up) Clostripain light chain: NKNQKVTIMYYCDADNNLEGSLLNDIEEMKTGYKDSPNLNLIALVDRSPRYSSDEKVLGEDFSDTRLYKIEHNKANRLDGKNEFPEISTTSKYEANMGDPEVLKKFIDYCKSNYEADKYVLIMANHGGGAR Clostripain heavy chain: AICWDDSNLDKNGEADCLYMGEISDHLTEKQSVDLLAFDACLMGTAEVAYQYRPGNGGFSADTLVASSPVVWGPGFKYDKIFDRIKAGGGTNNEDDLTLGGKEQNFDPATITNEQLGALFVEEQRDSTHANGRYDQHLSFYDLKKAESVKRAIDNLAVNLSNENKKSEIEKLRGSGIHTDLMHYFDEYSEGEWVEYPYFDVYDLCEKINKSENFSSKTKDLASNAMNKLNEMIVYSFGDPSNNFKEGKNGLSIFLPNGDKKYSTYYTSTKIPHWTMQSWYNSIDTVKYGLNPYGKLSWCKDGQDPEINKVGNWFELLDSWFDKTNDVTGGVNHYQW	–	produced measureable GLP-1(7-36)NH2	–
